Data as given in patent US6642209B1, “Use of adenosine compounds to alleviate or normalize pathologically hyperexcited sensory nerve function in a human patient” (priority 1990, dated 2003).
“Also recorded” adds a separate entry of the source.

Experiments:
dogs = assay: Oxygen transport and regional tissue oxygenation during graded induced hypotension; assay type: in vivo, dog; conditions: for O2 supply/demand ratio: graded hypotension to MAP 30 mmHg
Description: Arterial and pulmonary artery (Swan-Ganz) catheters were placed via a femoral cut down. […] Another PO2 sensor probe was placed on the surface of the liver, kidney, subcutaneous, and muscle of the chest wall through a small skin incision. Referring to FIG. 6, the dogs were divided into three groups: (a) hemorrhagic (n=7), (b) isoflurane (n=8), and (c) ATP (n=8). […] The following were measured and/or calculated: […] The data were analyzed using ANOVA with the Bonferroni t-test and unpaired t-test where appropriate, accepting p<0.05 as significant.

surgical patients [1] = assay: ATP infusion to attenuate surgical stress response in patients
experimental animals [2] = assay: Lethal to effective dose margin; assay type: in vivo
Description: In contrast to other conventional anesthetics, the adenosine compounds are useful over a wide dose range. For example, adenosine is active over a as range of between 1 to 5000 μg/kg/min. In contrast, conventional anesthetic agents, such as isoflurane, have narrow effective ranges. The fatal to effective anesthetic ratio of isoflurane is 3.02±0.13. Other reports indicate that isoflurane has about 1.88 times the safety range of halothane. […] Of course, the anesthesiologist will err on the side of administering too little and, thereby, runs the risk of underdosing the patient. This need for caution may result in an inadequately anesthetized (subanesthetized) patient during the surgical procedure.
One great advantage observed with adenosine compounds is the wide margin for error on effective therapeutic range. This advantage is exemplified by adenosine where the lethal dose is about 100 times the dose required for analgesia, and ATP where the lethal dose is greater than 150 times the amount required for analgesia.

surgical patients [3] = assay: ATP anesthesia replacing enflurane or N2O in patients undergoing oral surgery
rabbits [4] = assay: Replacement of enflurane anesthesia by ATP infusion, electrical tail stimulation and tail clamp
rabbits [5] = assay: Hypothermia induced under adenosine or ATP infusion; assay type: in vivo, rabbit
Description: The hypothermic and rewarming effects of an adenosine compound are tested in experimental animals prepared similarly as in the rabbit model described herein to test for anesthetic effects, except that the body temperature is allowed to fall. In animal studies (rabbit) where the room has a temperature of approximately 22° C., the body temperature will fall from a norm of about 39° C. to about 32° C. in about three hours. If the animal is cooled further with ice bags, a temperature of approximately 22° C. can be achieved in three hours without cardiovascular decompensation. Rewarming is done with the aid of a thermal blanket and heat lamp. The effective dosages of adenosine compound ranged from about 100 μg/kg/min to about 5000 μg/kg/min.
Referring to FIG. 7, the body temperature versus time plots are shown for eight different experiments. In Run 1, adenosine 500 μg/kg/min was administered intravenously to rabbits for six hours. The administration was then stopped and the body temperatures were allowed to recover.
In Run 2, ATP 500 μg/kg/min was administered intravenously for six hours. At that time, the body temperature was 31.5° C. The animal's body temperature was allowed to recover by applying external heating for four hours when (at the arrow) the external heating was removed and the temperature was allowed to fall. The body temperature again fell.
In Run 3, ATP was administered intravenously. The body temperature stabilized after ten hours at 32.5° C.
In Runs 4, 5, and 6, adenosine was administered to rabbits until the body temperature reached a constant value. In Run 4, after five hours, the body temperature stabilized at 33° C. In Run 6, after six hours, the temperature stabilized at 31.5° C.
In Run 7, five unmedicated New Zealand rabbits were anesthetized with halothane in O2 using a face mask. The ear vein was cannulated with a 22 gauge plastic catheter for drug infusion. 500 μg/kg/min to 5500 μ/kg/min adenosine was administered IV. Body temperature was monitored through a rectal thermometer. The body temperature started at approximately 38.5° C. After the application of ice bags, the temperature dropped approximately 5.5° C./hr until a minimum body temperature of approximately 22° C. was achieved.
The ice bags were removed and external heating applied. The body temperature of all rabbits returned to normal, and the rabbits were apparently normal.
In a comparison, in Run 8, six rabbits were anesthetized with isofluane and external cooling applied.

experimental animals [6] = conditions: cited from earlier work
[7] = Anesthesia score chart comparing anesthetic agents for the four components of anesthesia (Table 1); set-up: key: 0 no effect; 1 minimal; 2 mostly; 3 maximal
[8] = GROUP A spontaneously breathing, ATP infusion time 60 min, n = 18, mean
[9] = GROUP A spontaneously breathing, ATP infusion time 120 min, n = 16, mean
[10] = GROUP A spontaneously breathing, ATP infusion time 180 min, n = 3, mean
[11] = GROUP A spontaneously breathing, ATP infusion time 240 min, n = 1
[12] = GROUP B mechanically breathing, ATP infusion time 60 min, n = 14, mean
[13] = GROUP B mechanically breathing, ATP infusion time 120 min, n = 10, mean
[14] = GROUP B mechanically breathing, ATP infusion time 180 min, n = 5, mean
[15] = GROUP B mechanically breathing, ATP infusion time 240 min, n = 4, mean
[16] = N2O 60%, ENF 2.0-[…], ATP 362 ± 164 μg/kg/min, Mean ± SD, n = 6

**Q.** What does the source list for `Nc1ncnc2c1ncn2[C@@H]1O[C@H](COP(=O)(O)OP(=O)(O)OP(=O)(O)O)[C@@H](O)[C@H]1O` [ATP, adenosine triphosphate]?
**A.** O2 supply/demand ratio (dogs): positive O2 supply/demand ratio in all stages of hypotension; BE (surgical patients [1]; [8]): −3.3; Hb (surgical patients [1]; [8]): 12.6; PCO2 (surgical patients [1]; [8]): 44.1; PO2 (surgical patients [1]; [8]): 140.9; pH (arterial blood gas) (surgical patients [1]; [8]): 7.33; BE (surgical patients [1]; [9]): −3.2; Hb (surgical patients [1]; [9]): 12.8; PCO2 (surgical patients [1]; [9]): 41.9; PO2 (surgical patients [1]; [9]): 137.9; pH (arterial blood gas) (surgical patients [1]; [9]): 7.34; BE (surgical patients [1]; [10]): −3.0; Hb (surgical patients [1]; [10]): 11.9; PCO2 (surgical patients [1]; [10]): 39.9; PO2 (surgical patients [1]; [10]): 165.5; pH (arterial blood gas) (surgical patients [1]; [10]): 7.36; BE (surgical patients [1]; [11]): −4.1; Hb (surgical patients [1]; [11]): 10.7; PCO2 (surgical patients [1]; [11]): 31.0; PO2 (surgical patients [1]; [11]): 115.1; pH (arterial blood gas) (surgical patients [1]; [11]): 7.39; BE (surgical patients [1]; [12]): −4.2; Hb (surgical patients [1]; [12]): 11.7; PCO2 (surgical patients [1]; [12]): 40.2; PO2 (surgical patients [1]; [12]): 140.3; pH (arterial blood gas) (surgical patients [1]; [12]): 7.34; BE (surgical patients [1]; [13]): −4.8; Hb (surgical patients [1]; [13]): 11.2; PCO2 (surgical patients [1]; [13]): 40.1; PO2 (surgical patients [1]; [13]): 142.6; pH (arterial blood gas) (surgical patients [1]; [13]): 7.33; BE (surgical patients [1]; [14]): −5.2; Hb (surgical patients [1]; [14]): 11.8; PCO2 (surgical patients [1]; [14]): 41.6; PO2 (surgical patients [1]; [14]): 130.4; pH (arterial blood gas) (surgical patients [1]; [14]): 7.32; BE (surgical patients [1]; [15]): −5.4; Hb (surgical patients [1]; [15]): 11.7; PCO2 (surgical patients [1]; [15]): 45.4; PO2 (surgical patients [1]; [15]): 130.1; pH (arterial blood gas) (surgical patients [1]; [15]): 7.288; Intra-operative urine output (surgical patients [1]; Group A, spontaneous ventilation, n=20): 58.7 (±43.3) ml/hr; Intra-operative urine output (surgical patients [1]; Group B, mechanically ventilated, n=14): 71.8 (±44.6) ml/hr; emergence from anesthesia (surgical patients [1]; after discontinuation of N2O and ATP): all patients emerged from anesthesia smoothly; cardiovascular and neurobehavioral responses to surgery (surgical patients [1]; continuous infusion in combination with N2O): effectively inhibited; ENF requirement (surgical patients [1]; continuous infusion of ATP): markedly reduced; hemodynamic and respiratory functions (surgical patients [1]; during ATP infusion): well maintained; deaths on overdose (experimental animals [2]; enormous overdoses): no experimental animals died; lethal dose relative to the dose required for analgesia (experimental animals [2]; in vivo): greater than 150 times; ATP infusion dose titrated until ENF or N2O was completely replaced (surgical patients [3]; 14 patients, Mean ± SD): 108 ± 21 µg/kg/min; Urine output (surgical patients [3]; 14 patients, Mean ± SD): 111 ± 16 mL/h; ventilatory or blood gas deterioration (surgical patients [3]; during ATP infusion in spontaneously breathing patients): No ventilatory or blood gas deterioration was seen; purposeful escape movements on electrical tail stimulation (rabbits [4]; FIG. 4): purposeful escape movements decreased; analgesic effect after the infusion had stopped (rabbits [4]; IV ATP): selective analgesic effect persisted; DBP (rabbits [4]; [16]): 83 ± 16 mmHg; HR (rabbits [4]; [16]): 278 ± 26 bpm; PaCO2 (rabbits [4]; [16]): 22 ± 3 mmHg; PaO2 (rabbits [4]; [16]): 145 ± 24 mmHg; RR (Respiratory Rate) (rabbits [4]; [16]): 81 ± 14 bpm; SBP (rabbits [4]; [16]): 112 ± 20 mmHg; body temperature (rabbits [5]; Run 2, 500 μg/kg/min intravenously for six hours): 31.5 °C; body temperature at which it stabilized (rabbits [5]; Run 3, intravenously, after ten hours): 32.5 °C

**Q.** Which results are given for `FC(F)OC(Cl)C(F)(F)F` (stereo not shown) [isoflurane]?
**A.** fatal to effective anesthetic ratio (experimental animals [6]; in vivo): 3.02±0.13; safety range relative to halothane (experimental animals [6]; other reports): about 1.88 times; O2 supply/demand ratio (dogs): reduced O2 supply/demand ratio; O2 delivery (DO2) (dogs; graded hypotension, higher dosage): seriously depressed DO2; Antinociception (analgesia, less pain perception) ([7]; Anesthesia Score 0 to 3): 1; Inhibition of Stress (autonomic responses: blood pressure, heart rate; endocrine and metabolic responses) ([7]; Anesthesia Score 0 to 3): 1; Muscle Relaxation ([7]; Anesthesia Score 0 to 3): 1; Sleep (unconsciousness, amnesia, sedation) ([7]; Anesthesia Score 0 to 3): 3; TOTALS of Anesthesia Score ([7]; sum of the four components): 6; survival during body temperature lowering (rabbits [5]; external cooling, Run 7 (five rabbits), Run 8 (six rabbits)): one rabbit expired due to ventricular fibrillation; also recorded: another expired due to pulmonary edema; shivering during body temperature lowering (rabbits [5]; external cooling, Run 7, Run 8): shiver violently
